{"source": "patent US20070179085A1", "about": "“MODULATION OF RHAMM-CAVEOLIN/LIPID RAFT INTERACTIONS TO AFFECT DEVELOPMENT, RESPONSES TO TISSUE INJURY, ANGIOGENESIS, TUMORIGENESIS, METASTASIS AND GROWTH FACTOR/CYTOKINE RESPONSES” (priority 2005, published 2007)", "key": {"[1]": {"system": "70 kDa RHAMM", "assay": "GPI-anchor identification: Triton X-114 phase separation, PI-PLC, surface biotin labeling", "type": "cell-based, rat", "details": "co-treatment with PDGF-BB and mannosamine 10 mM for six hours", "procedure": "Differential solubilization and temperature-induced Triton X-114 phase separation was performed as briefly described with 75-100 μg of membrane protein. Cells were grown to confluency and quiesced for 48 hours at which point cells were harvested for membrane protein. Some samples were incubated with PI-PLC for 1 hour at 37° C. before proceeding with Triton X-114 phase separation. PI-PLC was used at 0.375 U/100 μg membrane protein. In separate experiments Mannosamine-HCl was used at 10 mM during 6 hour PDGF-BB treatment. For radiolabel experiments, cells were grown to confluency and quiesced for 48 hours in inositol-free media and then incubated with 4 μCi/mL of ^3H myo-inositol during 6 hour PDGF-BB treatment. For surface biotinylation experiments, media was removed after treatment and replaced with 1 mg/ml biotin in defined media and incubated for 20 minutes at 37° C."}, "[2]": {"system": "RHAMM:caveolin", "assay": "Co-immunoprecipitation of RHAMM and caveolin-1 from SMC lysates", "type": "cell-based, rat", "details": "peptide 24 hours prior to and during 6 hour PDGF-BB treatment", "procedure": "For standard experiment, 100 μg of lysate was used. Samples were pre-cleared with 50 μl of Protein G-agarose for 60 minutes at room temperature while rotating then centrifuged at 13000 g for 5 minutes. The supernatant was transferred to a new tube and incubated with 1 μg of antibody overnight at 4° C. while rotating. The samples were then incubated with 20 μl of Protein G-agarose for 1 hour at 4° C. while rotating. Beads were collected by centrifugation (1 minute at high speed) and then washed three times with lysis buffer (50 mM Tris, pH 8.0/140 mM NaCl/[…]/0.4% Deoxycholate/protease inhibitor cocktail (Boehringer Manheim). The beads were resuspended in at least 40 μl of 2× Novex Sample Buffer and western blot was performed as per NUPAGE protocol (Invitrogen). Primary and secondary antibodies were diluted (R36: 5 μg/ml, Caveolin-1: 0.25 μg/ml) and pre-incubated together over-night before use. For biotin labeling experiments, 6 μl of streptavidin-agarose was added to 25 μg of protein and incubated for 3 hours at 4° C. Beads were collected by centrifugation at 13000 g for 1 minute, washed and resuspended in Novex sample buffer as above.\nTherefore, peptides were used to interfere with RHAMM:caveolin to establish direct protein-protein interactions. […]"}, "[3]": {"system": "erk", "assay": "Immunoblot for total and phosphorylated-erk in PDGF-BB stimulated SMC", "type": "cell-based, rat", "details": "peptide pretreatment 24 hours, then 10-minute PDGF-BB"}, "[4]": {"system": "rat aortic SMC", "assay": "SMC proliferation (MTS assay)", "type": "cell-based", "procedure": "In order to determine the effect of PDGF-BB on SMC proliferation, 80% confluent and quiescent cultures of SMC were stimulated for 72 hours with varying doses of PDGF-BB (2-50 ng/ml) and cell number was determined using the MTS assay as described in Methods. A bell-shaped dose response curve was obtained with maximum stimulation of SMC proliferation at 10-25 ng/ml (FIG. 7d, *p<0.01 vs. control).\nThe effect of HA on SMC proliferation and modulation by PDGF-BB was also examined. SMC that were either maintained in serum-free medium or pre-stimulated with 10 ng/ml PDGF-BB for 24 hours were exposed to HA in serum-free medium at concentrations of 0.1-1000 μg/ml for 48 hours. […] As expected, baseline proliferation was increased in SMC cultures following exposure to 10 ng/ml PDGF-BB for 24 hours (FIG. 7e, *p<0.01 vs. non-stimulated cells). […] In order to determine the contribution of RHAMM to SMC proliferation induced by HA, SMC cultures were treated with R36 throughout the pre-stimulation period with PDGF-BB and subsequently during HA stimulation. Non-immune IgG was used as a negative control and a blocking anti-PDGF-BB antibody was used as a positive inhibitory control. Cell number was determined by MTS assay 48 hours after HA stimulation with and without antibody treatments. As noted before, PDGF-BB pretreatment increased baseline proliferation, FIG. 7e*p<0.01 vs. no PDGF), and HA stimulated a further 25% increase in proliferation, FIG. 7e**p<0.05 vs. PDGF, no HA). […] Anti-PDGF-BB antibody blocked 50% of the PDGF-mediated increase in baseline proliferation, FIG. 7e#p<0.01 anti-PDGF vs. normal IgG)."}, "[5]": {"system": "SMC", "details": "0.0 μg/ml of HA; previously demonstrated; cited from earlier work"}, "[6]": {"system": "rat aortic SMC", "assay": "SMC migration at leading edge of single scratch wounds (timelapse cinemicrography)", "type": "cell-based", "procedure": "Primary cultures of rat aortic SMC were established as previously described. […]\nThe medium of confluent SMC cultures was then changed to DMEM defined medium for 48 hours for quiescence. Migration of SMC at the leading edge of single scratch wounds of confluent cultures was determined using timelapse cinemicrography as previously described and summarized below. […] Media HA concentration was determined as described below. […]\nSMC plated in DMEM complete medium were allowed to grow to confluence. After overnight quiescence, a single scratch wound was made in the center of the culture plate using a sterile cell scraper and fresh defined medium was added The motility of cells at the leading edge of these wounds was determined using timelapse cinemicrography (Metamorph, Universal Imaging Corporation, West Chester, Pa.) as previously described. Briefly, cells were monitored using a Nikon TE-300 inverted microscope (Nikon Instruments, Inc., Melville, N.Y.) to which a video camera (Hamamatsu CCD, Inc., Hamamatsu City, Japan) was attached. At least 20 cells per high power field were imaged every hour and the mean distance traveled per frame was measured to obtain mean cell velocities."}, "[7]": {"system": "70 kDa RHAMM", "assay": "MBCD-mediated release of RHAMM from SMC (caveolar disruption)", "type": "cell-based, rat", "details": "MBCD 30 minutes, absence of PDGF-BB", "procedure": "Caveolar disruption was performed as described below. Cells were grown to confluency in 150 mm dishes and quiesced for 48 hr. After 6 hr PDGF treatment, media was removed and replaced with 20 mm methyl-beta-cyclodextrin in TKM buffer (50 mM Tris-HCl, pH7.4, 25 mM KCl, 5 mM MgCl, 1 mM EDTA). Cells were incubated for 20-30 minutes at 37° C., and the cell-free supernatant was collected after centrifugation at 2000 g for 10 minutes.\nSince the GPI anchor links to a hydrophobic lipid tail that inserts into the exoplasmic leaflet of the cell membrane, a liquid ordered arrangement is necessary to maintain its integrity. […] Methyl-beta-cyclodextrin (MBCD), a cell surface-specific cholesterol-extracting agent, can be used to disrupt lipid rafts and caveolae to release endogenous GPI-anchored proteins (Ilangumaran, Madore, McCabe). […] Proteins in the cholesterol-rich annulus are sensitive whereas those in the sphingolipid core are resistant to release by MBCD. SMC cultures were treated with MBCD for 30 minutes, and the cell free supernatant was collected. The supernatant was run by volume on SDS-PAGE and immunoblotted for RHAMM and urokinase-plasmingen activator receptor (uPAR), a defined GPI-anchored protein previously shown to be present in lipid domains. Without MBCD, RHAMM was not released into the supernatant in detectable amounts, irrespective of PDGF-BB treatment (FIG. 11a, lane 2 vs 4). […]"}, "[8]": {"system": "rat aortic SMC", "assay": "HA content of medium of SMC cultures (ELISA like assay)", "type": "cell-based", "details": "quiescent SMC treated 24 hours, normalized to total protein", "procedure": "The medium of confluent SMC cultures was then changed to DMEM defined medium for 48 hours for quiescence. Migration of SMC at the leading edge of single scratch wounds of confluent cultures was determined using timelapse cinemicrography as previously described and summarized below. To observe the effect of HA on this migratory response to wounding, cultures were stimulated with varying concentrations of HA (0.1-100 μg/ml) and studied for 24 hours. For PDGF-BB stimulated HA synthesis experiments, quiescent SMC were stimulated with varying doses of PDGF-BB (2-100 ng/ml) for 24 hours. Media HA concentration was determined as described below. All experiments described below included 10 replicates and each experiment was repeated at least 3 times.\nA modified ELISA assay was utilized for determination of HA concentration.\nIn order to determine the optimal concentration of PDGF-BB required to simulate HA synthesis in SMC, the HA content of medium from quiescent SMC treated for 24 hours with various concentrations of PDGF-BB was determined using an ELISA like assay for HA. Resulting values were normalized to the total protein content of the cultures. […] We therefore used this concentration of PDGF-BB for all subsequent experiments."}}, "data": [{"molecule": "N[C@@H]1C(O)O[C@H](CO)[C@@H](O)[C@@H]1O", "note": "(stereo partly drawn) [mannosamine]", "values": [{"measurement": "presence of RHAMM in pellet phase after Triton X-114 fractionation", "setting": "[1]", "value": "completely inhibited"}]}, {"molecule": "CAV: caveolin scaffolding domain (aa 82-101) peptide fused to antenapedia sequence (RQIKIWFQNRRMKWKKDGIWKASFTTFTVTKYWFYR)", "values": [{"measurement": "co-immunoprecipitation of RHAMM and caveolin-1", "setting": "[2]", "value": "decreased co-immunoprecipitation"}, {"measurement": "PDGF-BB-induced erk phosphorylation after peptide pretreatment", "setting": "[3]", "value": "inhibited"}]}, {"molecule": "hyaluronan [HA]", "values": [{"measurement": "proliferative response of SMC to HA without PDGF-BB pre-stimulation", "setting": "[4]; HA 0.1-1000 μg/ml, 48 hours, serum-free medium", "value": "no proliferative response"}, {"measurement": "HA concentration of maximal proliferative response", "setting": "[4]; after pre-stimulation with 10 ng/ml PDGF-BB", "value": 100, "unit": "µg/mL"}, {"measurement": "further increase in SMC proliferation in response to HA", "setting": "[4]; after pre-stimulation with 10 ng/ml PDGF-BB for 24 hours, HA 48 hours", "value": 25, "unit": "%"}, {"measurement": "random migration of sub-confluent SMC cultures", "setting": "[5]", "value": "increases their random migration"}, {"measurement": "effect of exogenous HA on SMC migration after single scratch wounding", "setting": "[6]; 0.001 μg/ml HA added to wounded cultures", "value": "further stimulation of SMC that continued up to 18 hours"}]}, {"molecule": "RM: peptide of RHAMM caveolin-binding motif (KWRLL YEEL YDKTKPFQ) fused to antenapedia sequence RQIKIWFQNRRMKWKK (YDKTKPFQRQIKIWFQNRRMKWKK)", "values": [{"measurement": "co-immunoprecipitation of RHAMM and caveolin-1", "setting": "[2]", "value": "decreased co-immunoprecipitation"}, {"measurement": "PDGF-BB-induced erk phosphorylation after peptide pretreatment", "setting": "[3]", "value": "inhibited"}]}, {"molecule": "Methyl-beta-cyclodextrin [MBCD]", "values": [{"measurement": "release of 70 kDa RHAMM into supernatant by MBCD", "setting": "[7]", "value": "released into supernatant"}]}, {"molecule": "PDGF-BB: Platelet-Derived Growth Factor BB dimer, obtained from R & D Systems (protein, UniProt P01127 82-190, looked up, homodimer BB, Platelet-Derived Growth Factor BB dimer, obtained from R & D Systems) Platelet-derived growth …: SLGSLTIAEPAMIAECKTRTEVFEISRRLIDRTNANFLVWPPCVEVQRCSGCCNNRNVQCRPTQVQLRPVQVRKIEIVRKKPIFKKATVTLEDHLACKCETVAAARPVT", "values": [{"measurement": "baseline SMC proliferation", "setting": "[4]; 10 ng/ml PDGF-BB for 24 hours", "value": "increased"}, {"measurement": "PDGF-BB dose of maximum stimulation of SMC proliferation", "setting": "[4]; 72 hours, doses 2-50 ng/ml, bell-shaped curve", "value": "10 to 25", "unit": "ng/mL"}, {"measurement": "PDGF-BB dose of maximal HA synthesis", "setting": "[8]", "value": 10, "unit": "ng/mL"}, {"measurement": "increase of mean cell velocity of SMC at leading edge of wounds", "setting": "[6]; PDGF-BB 10 ng/ml vs non-stimulated control", "value": "two-fold"}]}]}
